The structures appear in SMILES notation. Where only a bound is given, the exact number is not on record here.

In one assay the test system is Plutella xylostella. The experiment in a line: Pesticidal test against Plutella xylostella (cabbage leaf dip). In kind it is in vivo. The note with it: foliar, 144 h, 2-stage larvae, examined after 6 days, 25° C., read-out: pesticidal rate; for pest or weed control at 1 ppm: concentration 1 ppm; for pest or weed control at 10 ppm: concentration 10 ppm. The protocol: (§1) Pesticidal Test against Plutella xylostella A piece of a cabbage leaf was immersed for 30 seconds in a chemical solution in which a test compound had been prepared at a predetermined concentration, and air-dried, and then put into a 7 cm polyethylene cup having a filter paper laid on the bottom thereof, and 2-stage larvae of Plutella xylostella were released. They were left to stand in a thermostatic chamber at 25° C., and the numbers of the living pests and the dead pests were examined after 6 days. The test was carried out with five larvae per group in two replicates. Further, the above compound (A) was used as a comparative compound.

The next assay deals with Spodoptera litura. The assay is described as follows: Pesticidal test against Spodoptera litura (cabbage leaf dip). It counts as in vivo. To be noted: foliar, 144 h, 2-stage larvae, examined after 6 days, 25° C., read-out: pesticidal rate; for pest or weed control at 1 ppm: concentration 1 ppm; for pest or weed control at 10 ppm: concentration 10 ppm. The procedure: as §1, with “Spodoptera litura” for “Plutella xylostella”, “following” for “above”, “(A) disclosed in the pamphlet of International Publication WO 2005/073165” for “(A)”

In the case of `O=C(Nc1cccc(C(=O)Nc2c(I)cc(C(F)(C(F)(F)F)C(F)(F)C(F)(F)F)cc2C(F)(F)F)c1)c1ccccc1` (centres unmarked) [6-502], the pest or weed control at 1 ppm with Plutella xylostella and in the assay on Spodoptera litura was not below 70% throughout. As for `O=C(Nc1cccc(C(=O)Nc2c(Br)cc(C(F)(C(F)(F)F)C(F)(F)C(F)(F)F)cc2Br)c1)c1ccc(Cl)nc1` (centres unmarked) [6-60], in the assay with Plutella xylostella, the pest or weed control at 10 ppm is not below 70%. In addition, the pest or weed control at 1 ppm with Spodoptera litura is not below 70%. With `CN(C(=O)c1ccc(Cl)nc1)c1cccc(C(=O)Nc2c(Br)cc(C(F)(C(F)(F)F)C(F)(F)C(F)(F)F)cc2Br)c1` (centres unmarked) [7-60], the pest or weed control at 1 ppm with Plutella xylostella and in the assay on Spodoptera litura was not below 70% throughout. Turning to `O=C(Nc1cccc(C(=O)Nc2c(I)cc(C(F)(C(F)(F)F)C(F)(F)C(F)(F)F)cc2C(F)(F)F)c1)c1ccc(Cl)nc1` (centres unmarked) [6-545], the pest or weed control at 1 ppm with Plutella xylostella and in the assay on Spodoptera litura was not below 70% in each case. For the molecule `CN(C(=O)c1ccccc1F)c1nc(C(=O)Nc2c(Br)cc(C(F)(C(F)(F)F)C(F)(F)F)cc2C(F)(F)F)cs1` [27-628, N-(2-bromo-4-(perfluoropropan-2-yl)-6-(trifluoromethyl)phenyl)-2-(2-fluoro-N-methylbenzamide)thiazole-4-carboxamide], the pest or weed control at 10 ppm in the assay with Plutella xylostella and in the assay on Spodoptera litura was not below 70% each time.

In the case of `N#Cc1ccc(C(=O)Nc2cccc(C(=O)Nc3c(Br)cc(C(F)(C(F)(F)F)C(F)(F)C(F)(F)F)cc3Br)c2)cc1` (centres unmarked) [6-46], the pest or weed control at 1 ppm with Plutella xylostella and in the assay on Spodoptera litura was not below 70% each time.

With `CN(C(=O)c1cccc(C#N)c1)c1cccc(C(=O)Nc2c(Br)cc(C(F)(C(F)(F)F)C(F)(F)C(F)(F)F)cc2Br)c1` (centres unmarked) [7-45], the pest or weed control at 1 ppm in the assay with Plutella xylostella and with Spodoptera litura was not below 70% each time. On to `CN(C(=O)c1ccccc1)c1cccc(C(=O)Nc2c(Br)cc(C(F)(C(F)(F)F)C(F)(F)C(F)(F)F)cc2Br)c1` (centres unmarked) [7-38], for which the pest or weed control at 1 ppm with Plutella xylostella and in the assay with Spodoptera litura was not below 70% in each case. With `N#Cc1cccc(C(=O)Nc2cccc(C(=O)Nc3c(Br)cc(C(F)(C(F)(F)F)C(F)(F)F)cc3C(F)(F)F)c2)c1` [6-288], the pest or weed control at 1 ppm in the assay on Plutella xylostella and with Spodoptera litura was not below 70% each time. Turning to `O=C(Nc1cccc(C(=O)Nc2c(Cl)cc(C(F)(C(F)(F)F)C(F)(F)F)cc2C(F)(F)F)c1)c1ccccc1` [6-111], the pest or weed control at 1 ppm with Plutella xylostella and in the assay on Spodoptera litura was not below 70% throughout. On to `CN(C(=O)c1ccc(C#N)cc1)c1cccc(C(=O)Nc2c(I)cc(C(F)(C(F)(F)F)C(F)(F)C(F)(F)F)cc2I)c1` (centres unmarked) [7-79], for which the pest or weed control at 1 ppm with Plutella xylostella and with Spodoptera litura was not below 70% each time.

Turning to `CN(C(=O)c1cccc(NC(=O)c2cccc(C#N)c2)c1)c1c(Br)cc(C(F)(C(F)(F)F)C(F)(F)F)cc1C(F)(F)F` [8-288], the pest or weed control at 1 ppm in the assay with Plutella xylostella and with Spodoptera litura was not below 70% each time.

Take `CN(C(=O)c1ccccc1)c1cccc(C(=O)Nc2c(I)cc(C(F)(C(F)(F)F)C(F)(F)C(F)(F)F)cc2I)c1` (centres unmarked) [7-71]: the pest or weed control at 1 ppm in the assay with Plutella xylostella and in the assay with Spodoptera litura was not below 70% in each case. For the molecule `CN(C(=O)c1ccc(Cl)nc1)c1cccc(C(=O)Nc2c(I)cc(C(F)(C(F)(F)F)C(F)(F)C(F)(F)F)cc2I)c1` (centres unmarked) [7-93], the pest or weed control at 1 ppm with Plutella xylostella and in the assay with Spodoptera litura was not below 70% in each case.

With `O=C(Nc1cccc(C(=O)Nc2c(C(F)(F)F)cc(C(F)(C(F)(F)F)C(F)(F)F)cc2C(F)(F)F)c1)c1ccccc1` [6-804], the pest or weed control at 1 ppm with Plutella xylostella and in the assay with Spodoptera litura was not below 70% in each case. Take `O=C(Nc1cccc(C(=O)Nc2c(I)cc(C(F)(C(F)(F)F)C(F)(F)F)cc2C(F)(F)F)c1)c1ccccc1` [6-424]: the pest or weed control at 1 ppm in the assay on Plutella xylostella and in the assay on Spodoptera litura was not below 70% throughout. For the molecule `CN(C(=O)c1ccc(Cl)nc1)c1cc(C(=O)Nc2c(Cl)cc(C(F)(C(F)(F)F)C(F)(F)F)cc2C(F)(F)F)ccc1C#N` [2-513], the pest or weed control at 1 ppm in the assay on Plutella xylostella is not below 70%. Besides, the pest or weed control at 10 ppm with Spodoptera litura was not below 70%. As to `O=C(Nc1cccc(C(=O)Nc2c(Cl)cc(C(F)(C(F)(F)F)C(F)(F)F)cc2Br)c1F)c1ccccc1` [6-5902], the pest or weed control at 1 ppm with Spodoptera litura is not below 70%. `O=C(Nc1c(I)cc(C(F)(C(F)(F)F)C(F)(F)F)cc1C(F)(F)F)c1cccc(NC(=O)c2ccc(Cl)cc2Cl)c1` [6-448]: the pest or weed control at 10 ppm in the assay with Plutella xylostella was not below 70%. Also, the pest or weed control at 1 ppm in the assay on Spodoptera litura was not below 70%. In the case of `O=C(Nc1cccc(C(=O)Nc2c(I)cc(C(F)(C(F)(F)F)C(F)(F)C(F)(F)F)cc2I)c1)c1ccc(Cl)nc1` (centres unmarked) [6-93], the pest or weed control at 10 ppm in the assay with Plutella xylostella is not below 70%. Further, the pest or weed control at 1 ppm with Spodoptera litura is not below 70%. In the case of `CN(C(=O)c1ccccc1F)c1cccc(C(=O)Nc2c(I)cc(C(F)(C(F)(F)F)C(F)(F)F)cc2C(F)(F)F)c1` [7-425], the pest or weed control at 1 ppm in the assay with Plutella xylostella and in the assay with Spodoptera litura was not below 70% each time. As for `O=C(Nc1cccc(C(=O)Nc2c(Br)cc(C(F)(F)C(F)(F)F)cc2C(F)(F)F)c1)c1ccccc1` [6-5913, 3-benzamide-N-(2-bromo-4-(perfluoroethyl)-6-(trifluoromethyl)phenyl)benzamide], the pest or weed control at 10 ppm in the assay with Plutella xylostella and with Spodoptera litura was not below 70% in each case. Turning to `CS(=O)(=O)c1ccc(C(=O)Nc2cccc(C(=O)Nc3c(I)cc(C(F)(C(F)(F)F)C(F)(F)F)cc3C(F)(F)F)c2)c(Cl)c1` [6-5912], the pest or weed control at 1 ppm in the assay with Plutella xylostella and with Spodoptera litura was not below 70% each time. In the case of `N#Cc1cccc(C(=O)Nc2cccc(C(=O)Nc3c(C(F)(F)F)cc(C(F)(C(F)(F)F)C(F)(F)F)cc3C(F)(F)F)c2)c1` [6-824], the pest or weed control at 1 ppm in the assay with Plutella xylostella and in the assay with Spodoptera litura was not below 70% throughout. Regarding `O=C(Nc1cccc(C(=O)Nc2c(I)cc(C(F)(C(F)(F)F)C(F)(F)F)cc2C(F)(F)F)c1)c1ccc(Cl)nc1` [6-467], the pest or weed control at 1 ppm with Plutella xylostella and with Spodoptera litura was not below 70% throughout.

With `CN(C(=O)c1ccc(C#N)nc1)c1cc(C(=O)Nc2c(Cl)cc(C(F)(C(F)(F)F)C(F)(F)F)cc2C(F)(F)F)ccc1C#N` [2-518], the pest or weed control at 10 ppm in the assay with Plutella xylostella and in the assay with Spodoptera litura was not below 70% in each case.

In the case of `CN(C(=O)c1ccc(C#N)cc1)c1cccc(C(=O)Nc2c(Br)cc(C(F)(C(F)(F)F)C(F)(F)C(F)(F)F)cc2Br)c1` (centres unmarked) [7-46], the pest or weed control at 1 ppm in the assay with Plutella xylostella and in the assay on Spodoptera litura was not below 70% each time. Turning to `CN(C(=O)c1c(F)cccc1F)c1cccc(C(=O)Nc2c(Br)cc(C(F)(C(F)(F)F)C(F)(F)F)cc2C(F)(F)F)c1` [7-290], the pest or weed control at 1 ppm in the assay on Plutella xylostella and in the assay on Spodoptera litura was not below 70% throughout. As to `CN(C(=O)c1cccc(F)c1)c1cccc(C(=O)Nc2c(Br)cc(C(F)(C(F)(F)F)C(F)(F)F)cc2C(F)(F)F)c1` [7-270], in the assay on Plutella xylostella, the pest or weed control at 10 ppm is not below 70%. Moreover, in the assay on Spodoptera litura, the pest or weed control at 1 ppm is not below 70%. Turning to `CN(C(=O)c1ccc(S(C)(=O)=O)cc1)c1cccc(C(=O)Nc2c(Br)cc(C(F)(C(F)(F)F)C(F)(F)F)cc2C(F)(F)F)c1` [7-5908], the pest or weed control at 10 ppm with Plutella xylostella and in the assay with Spodoptera litura was not below 70% throughout. As for `N#Cc1ccc(C(=O)Nc2cccc(C(=O)Nc3c(Br)cc(C(F)(C(F)(F)F)C(F)(F)F)cc3C(F)(F)F)c2)c(F)c1` [6-300], the pest or weed control at 1 ppm in the assay with Plutella xylostella and in the assay on Spodoptera litura was not below 70% each time.

For `N#Cc1ccc(C(=O)Nc2cccc(C(=O)Nc3c(C(F)(F)F)cc(C(F)(C(F)(F)F)C(F)(F)F)cc3C(F)(F)F)c2)cc1` [6-825], the pest or weed control at 1 ppm with Plutella xylostella and with Spodoptera litura was not below 70% in each case. With `N#Cc1ccc(C(=O)Nc2c(Cl)cc(C(F)(C(F)(F)F)C(F)(F)F)cc2C(F)(F)F)cc1NC(=O)c1ccc(Cl)nc1` [1-513], the pest or weed control at 1 ppm with Plutella xylostella and in the assay on Spodoptera litura was not below 70% each time. As to `N#Cc1ccc(C(=O)Nc2c(Cl)cc(C(F)(C(F)(F)F)C(F)(F)F)cc2C(F)(F)F)cc1NC(=O)c1ccccc1` [1-470], the pest or weed control at 10 ppm with Plutella xylostella was not below 70%. In addition, in the assay on Spodoptera litura, the pest or weed control at 1 ppm is not below 70%. With `CN(C(=O)c1cccc(C#N)c1)c1cccc(C(=O)Nc2c(C(F)(F)F)cc(C(F)(C(F)(F)F)C(F)(F)F)cc2C(F)(F)F)c1` [7-824], the pest or weed control at 1 ppm in the assay on Plutella xylostella and with Spodoptera litura was not below 70% in each case. Consider `O=C(Nc1cccc(C(=O)Nc2c(Br)cc(C(F)(C(F)(F)F)C(F)(F)C(F)(F)F)cc2Br)c1)c1ccccc1` (centres unmarked) [6-38], for which the pest or weed control at 1 ppm with Plutella xylostella and in the assay on Spodoptera litura was not below 70% in each case. As for `CN(C(=O)c1cccc(NC(=O)c2ccccc2)c1)c1c(C(F)(F)F)cc(C(F)(C(F)(F)F)C(F)(F)F)cc1C(F)(F)F` [8-804], the pest or weed control at 10 ppm with Plutella xylostella is not below 70%. In the assay with Spodoptera litura, the pest or weed control at 1 ppm is not below 70%.

In the case of `CN(C(=O)c1ccc(F)cc1)c1cccc(C(=O)Nc2c(Br)cc(C(F)(C(F)(F)F)C(F)(F)F)cc2C(F)(F)F)c1` [7-271], the pest or weed control at 1 ppm in the assay on Plutella xylostella and in the assay on Spodoptera litura was not below 70% throughout. `COC(=O)c1cc(C#N)cc(C(=O)N(C)c2cccc(C(=O)Nc3c(Br)cc(C(F)(C(F)(F)F)C(F)(F)F)cc3C(F)(F)F)c2F)c1` [7-5910]: the pest or weed control at 1 ppm in the assay with Plutella xylostella and in the assay on Spodoptera litura was not below 70% each time.
